Reference: the RepoRT retention time repository

Test: HILIC, Waters ACQUITY UPLC BEH Amide, 100 × 2.1 mm, 1.7 µm; A: water + 0.125% formic acid + 10 mM ammonium formate; B: 5% water + 95% acetonitrile + 0.125% formic acid + 10 mM ammonium formate; gradient (min/%B) 0/100 2/100 7.7/70 9.5/40 10.25/30 12.75/100 17/100
Details: stereoisomer not certain

LC retention time [min] | SMILES
1.11 | O=C(O)CCc1nc(-c2ccccc2)c(-c2ccccc2)o1 [Oxaprozin]
8.75 | NC(=O)CCC(NC(=O)C1CCCN1)C(=O)O (stereo not drawn) [Pro-Gln]
1.37 | CC(=O)n1ccnc1 [1-Acetylimidazole]
1.24 | CN(CCOc1ccc(CC2SC(=O)NC2=O)cc1)c1ccccn1 (stereo not drawn) [Rosigltazone]
1.36 | O=C(O)CC(O)CC(O)C=Cc1c(C2CC2)nc2ccccc2c1-c1ccc(F)cc1 (stereo not drawn) [Pitavastatin]
1.36 | COc1cc(/C=C/C(=O)O)ccc1O [Ferulic acid]
5.31 | NC(CS)C(=O)O (stereo not drawn) [Cysteine]
9.74 | CC(OP(=O)(O)O)C(N)C(=O)O (stereo not drawn) [o-Phosphothreonine]
1.06 | CC(C)OC(=O)CCCC=CCC1C(O)CC(O)C1CCC(O)CCc1ccccc1 (stereo not drawn) [Latanoprost]
1.13 | CC1CC2C3CCC4=CC(=O)C=CC4(C)C3(F)C(O)CC2(C)C1C(=O)CO (stereo not drawn) [Desoximetasone]
0.98 | CCC(=O)NS(=O)(=O)c1ccc(-c2c(-c3ccccc3)noc2C)cc1 [Parecoxib]
1.77 | O=C1CCNC(=O)N1 [5,6-Dihydrouracil]
5.76 | CCC1(O)CC2CN(CCc3c([nH]c4ccccc34)C(C(=O)OC)(c3cc4c(cc3OC)N(C)C3C(O)(C(N)=O)C(O)C5(CC)C=CCN6CCC43C65)C2)C1 (stereo not drawn) [Vindesine]
1.45 | O=C(O)Cc1cccc(O)c1 [3-Hydroxyphenylacetic acid]
1.17 | Cc1ncc([N+](=O)[O-])n1CCO [Metronidazole]
7.3 | O=C1CCC(C(=O)N2CSCC2C(=O)O)N1 (stereo not drawn) [Pidotimod]
2.48 | O=c1ccn(C2OC(CO)C(O)C2O)c(=S)[nH]1 (stereo not drawn) [2-Thiouridine]
4.85 | NC1CCN(c2cccc(Cl)n2)CC1
8.92 | NCCCCN=C(N)N [Agmatine]
7.35 | Nc1c(O)cccc1C(=O)CC(N)C(=O)O (stereo not drawn) [3-Hydroxykynurenine]
3.17 | COc1ccccc1OCCNCC(O)COc1cccc2[nH]c3ccccc3c12 (stereo not drawn) [Carvedilol]

LC retention time [min] | SMILES
9.65 | NC(CO)C(=O)NC(CCC(=O)O)C(=O)O (stereo not drawn) [Ser-Glu]
0.94 | CC(C)Oc1ccc2c(=O)c(-c3ccccc3)coc2c1 [Ipriflavone]
8.29 | NC(CCO)C(=O)O (stereo not drawn) [Homoserine]
7.46 | Cn1cnc2c(ncn2C2OC(CO)C(O)C2O)c1=N (stereo not drawn) [1-Methyladenosine]
1.2 | NC(=O)OCC(COC(N)=O)c1ccccc1 [Felbamate]
2.04 | COC1C(O)CC(=O)OC(C)CC=CC=CC(O)C(C)CC(CC=O)C1OC1OC(C)C(OC2CC(C)(O)C(OC(=O)CC(C)C)C(C)O2)C(N(C)C)C1O (stereo not drawn) [Kitasamycin]
6.79 | CNC(Cc1ccc(O)cc1)C(=O)O (stereo not drawn) [N-Methyltyrosine]
1.35 | COc1cc(C(=O)O)cc(OC)c1O [Syringic acid]
9.91 | NC(CCSCC(N)C(=O)O)C(=O)O (stereo not drawn) [Cystathionine]
4.76 | CCCc1nc(C(C)(C)O)c(C(=O)O)n1Cc1ccc(-c2ccccc2-c2nn[nH]n2)cc1 [Olmesartan]
6.45 | CNC(CC(C)C)C(=O)O (stereo not drawn) [N-Methylleucine]
7.07 | CC(NC(CCc1ccccc1)C(=O)O)C(=O)N1CCCC1C(=O)O (stereo not drawn) [Enalaprilat]
1.32 | COc1ccc(NC=O)c(C(=O)CCNC(C)=O)c1 [N-gamma-Acetyl-N-2-formyl-5-methoxykynurenamine]
2.18 | Cn1c(=O)[nH]c2[nH]c(=O)[nH]c2c1=O [1-Methyluric acid]
9.85 | NC(N)=NCCCC(N)C(=O)NCC(=O)O (stereo not drawn) [Arg-Gly]
4.47 | CCCCCCCCCCCCCCCC(O)C(N)CO (stereo not drawn) [Dihydrosphingosine]
7.35 | CN[C@@H](CCCCN)C(=O)O [N.alpha.-Methyl-L-lysine]
8.02 | NCCC(=O)O [beta-Alanine]
7.18 | CC(O)C(O)C1=Nc2c(nc(N)[nH]c2=O)NC1 (stereo not drawn) [7,8-Dihydrobiopterin]
4.55 | CC(C)(O)CC(=O)O [beta-Hydroxyisovaleric acid]

SMILES | LC retention time [min]
CCOC(=O)C1C(OC(=O)c2ccccc2)CC2CCC1N2C (stereo not drawn) [Cocaethylene] | 2.12
CCC1(CC)C(=O)NCC(C)C1=O (stereo not drawn) [Methyprylon] | 1.18
Cc1nnc2n1-c1ccc(Cl)cc1C(c1ccccc1)=NC2 [Alprazolam] | 1.34
O=C1CN=C(c2ccccn2)c2cc(Br)ccc2N1 [Bromazepam] | 1.3
CC(C)(O)C1C2OC(=O)C1C1(O)CC3OC34C(=O)OC2C14C (stereo not drawn) [Picrotin] | 1.21
N#CCc1c[nH]c2ccccc12 [3-Indoleacetonitrile] | 8.02
COc1c2occc2cc2ccc(=O)oc12 [Xanthotoxin] | 1.04
